In brackets after ≈: the same amount, converted by molar mass.
Assays:
[1] = tested on: Streptococcus dysgalactiae; experiment: MIC in broth against Streptococcus dysgalactiae; assay type: cell-based
Protocol: (§1) The antimicrobial efficacy of twenty-five antimicrobial polymers (and Erythromycin) was evaluated using an MIC assay. For each study, a doubling dilution concentration of each antimicrobial polymer was prepared at 2× the final concentration range (0.12 to 16 μg/mL), and 100 μL of the API-null formulation was dispensed into the negative control wells. Overall, the antimicrobial polymer-containing compositions performed comparably well, or better, against the pathogens, as compared to Erythromycin (ERY).

[2] = tested on: Bordetella bronchiseptica; experiment: MIC in broth against Bordetella bronchiseptica; assay type: cell-based
Protocol: as §1

[3] = tested on: Klebsiella species; experiment: MIC in broth against Klebsiella species; assay type: cell-based
Protocol: as §1

[4] = tested on: E. faecalis (Str-15) ATCC 29212; experiment: MIC in broth against E. faecalis; assay type: cell-based; conditions: Enterococcus faecalis, ATCC29212
Protocol: The antimicrobial efficacy of twenty-five antimicrobial polymers (and Erythromycin) was evaluated using an MIC assay. […] Overall, the antimicrobial polymer-containing compositions performed comparably well, or better, against the pathogens, as compared to Erythromycin (ERY).

[5] = tested on: Mannheimia haemolytica; experiment: MIC in broth against Mannheimia haemolytica; assay type: cell-based
Protocol: as §1

[6] = tested on: E. faecalis (Str-15) ATCC 29212; conditions: cited from earlier work
[7] = tested on: Staphylococcus aureus (including MRSA); experiment: MIC in broth against Staphylococcus aureus (including MRSA); assay type: cell-based; set-up: MIC against Staphylococcus aureus including MRSA: unit: μg/mL
Protocol: as §1

[8] = tested on: Staphylococcus aureus (including MRSA); conditions: S. aureus (Sta-3) ATCC 29213; cited from earlier work
[9] = tested on: Escherichia coli; experiment: MIC in broth against Escherichia coli; assay type: cell-based
Protocol: as §1

[10] = tested on: Moraxella bovis; experiment: MIC in broth against Moraxella bovis; assay type: cell-based
Protocol: as §1

[11] = tested on: Streptococcus uberis; experiment: MIC in broth against Streptococcus uberis; assay type: cell-based
Protocol: as §1

Question: Which results are given for `CC[C@H]1OC(=O)[C@H](C)[C@@H](O[C@H]2C[C@@](C)(OC)[C@@H](O)[C@H](C)O2)[C@H](C)[C@@H](O[C@@H]2O[C@H](C)C[C@H](N(C)C)[C@H]2O)[C@](C)(O)C[C@@H](C)C(=O)[C@H](C)[C@@H](O)[C@]1(C)O` [Ery, Erythromycin]?
Answer: MIC ([1]; isolate # 208): 0.06 µg/mL (≈ 0.0818 µM); MIC ([1]; isolate # 209): 0.06 µg/mL (≈ 0.0818 µM); MIC ([1]; isolate # 210): 0.12 µg/mL (≈ 0.164 µM); MIC ([1]; isolate # 211): 0.06 µg/mL (≈ 0.0818 µM); MIC ([1]; isolate # 212): 0.12 µg/mL (≈ 0.164 µM); MIC ([1]; isolate # 213): 0.12 µg/mL (≈ 0.164 µM); MIC ([1]; isolate # 214): 0.06 µg/mL (≈ 0.0818 µM); MIC ([1]; isolate # 215): 0.12 µg/mL (≈ 0.164 µM); MIC ([1]; isolate # 216): 0.06 µg/mL (≈ 0.0818 µM); MIC ([1]; isolate # 217): 0.12 µg/mL (≈ 0.164 µM); MIC ([2]; isolate # 78 (canine/feline)): 8 µg/mL (≈ 10.9 µM); MIC ([2]; isolate # 79 (canine/feline)): 8 µg/mL (≈ 10.9 µM); MIC ([2]; isolate # 80 (canine/feline)): 2 µg/mL (≈ 2.73 µM); MIC ([2]; isolate # 81 (canine/feline)): 8 µg/mL (≈ 10.9 µM); MIC ([2]; isolate # 82 (canine/feline)): 2 µg/mL (≈ 2.73 µM); MIC ([2]; isolate # 83 (canine/feline)): 8 µg/mL (≈ 10.9 µM); MIC ([2]; isolate # 84 (canine/feline)): 8 µg/mL (≈ 10.9 µM); MIC ([2]; isolate # 85 (canine/feline)): > 8 µg/mL; MIC ([2]; isolate # 86 (canine/feline)): > 8 µg/mL; MIC ([2]; isolate # 87 (canine/feline)): 8 µg/mL (≈ 10.9 µM); MIC ([3]; Klebsiella, isolate # 28): > 8 µg/mL; MIC against Klebsiella species ([3]; isolate # 29): >8 µg/mL; MIC against Klebsiella species ([3]; isolate # 30): >8 µg/mL; MIC against Klebsiella species ([3]; isolate # 31): >8 µg/mL; MIC against Klebsiella species ([3]; isolate # 32): >8 µg/mL; MIC against Klebsiella species ([3]; isolate # 33): >8 µg/mL; MIC against Klebsiella species ([3]; isolate # 34): >8 µg/mL; MIC against Klebsiella species ([3]; isolate # 35): >8 µg/mL; MIC against Klebsiella species ([3]; isolate # 36): >8 µg/mL; MIC against Klebsiella species ([3]; isolate # 37): >8 µg/mL; MIC against Klebsiella species ([3]; isolate # 38): >8 µg/mL; MIC against Klebsiella species ([3]; isolate # 39): >8 µg/mL; MIC against Klebsiella species ([3]; isolate # 40): >8 µg/mL; MIC against Klebsiella species ([3]; isolate # 41): >8 µg/mL; MIC against Klebsiella species ([3]; isolate # 42): >8 µg/mL; MIC against Klebsiella species ([3]; isolate # 43): >8 µg/mL; MIC against Klebsiella species ([3]; isolate # 44): >8 µg/mL; MIC against Klebsiella species ([3]; isolate # 45): >8 µg/mL; MIC against Klebsiella species ([3]; isolate # 46): >8 µg/mL; MIC against Klebsiella species ([3]; isolate # 47): >8 µg/mL; MIC [4]: 2 µg/mL (≈ 2.73 µM); MIC ([5]; isolate # 158): 4 µg/mL (≈ 5.45 µM); MIC ([5]; isolate # 159): > 8 µg/mL; MIC ([5]; isolate # 160): 4 µg/mL (≈ 5.45 µM); MIC ([5]; isolate # 161): > 8 µg/mL; MIC ([5]; isolate # 162): 2 µg/mL (≈ 2.73 µM); MIC ([5]; isolate # 163): 4 µg/mL (≈ 5.45 µM); MIC ([5]; isolate # 164): > 8 µg/mL; MIC ([5]; isolate # 165): > 8 µg/mL; MIC ([5]; isolate # 166): 1 µg/mL (≈ 1.36 µM); MIC ([5]; isolate # 167): 4 µg/mL (≈ 5.45 µM); Known range (MIC) [6]: 1 to 4 µg/mL; MIC ([7]; Staphylococcus aureus, ATCC 29213 / MRSA, S. aureus (Sta-3) ATCC 29213): 0.5 µg/mL (≈ 0.681 µM); MIC against Staphylococcus aureus including MRSA ([7]; strain # 98): 0.25; MIC against Staphylococcus aureus including MRSA ([7]; strain # 99): 0.25; MIC against Staphylococcus aureus including MRSA ([7]; strain # 100): 0.25; MIC against Staphylococcus aureus including MRSA ([7]; strain # 101): 0.25; MIC against Staphylococcus aureus including MRSA ([7]; strain # 102): 0.25; MIC against Staphylococcus aureus including MRSA ([7]; strain # 103): 0.25; MIC against Staphylococcus aureus including MRSA ([7]; strain # 104): 0.25; MIC against Staphylococcus aureus including MRSA ([7]; strain # 105): 0.25; MIC against Staphylococcus aureus including MRSA ([7]; strain # 106): 0.25; MIC against Staphylococcus aureus including MRSA ([7]; strain # 107): 0.25; MIC against Staphylococcus aureus including MRSA ([7]; strain # 108): >8; MIC against Staphylococcus aureus including MRSA ([7]; strain # 109): 1; MIC against Staphylococcus aureus including MRSA ([7]; strain # 110): >8; MIC against Staphylococcus aureus including MRSA ([7]; strain # 111): >8; MIC against Staphylococcus aureus including MRSA ([7]; strain # 112): 0.5; MIC against Staphylococcus aureus including MRSA ([7]; strain # 113): >8; MIC against Staphylococcus aureus including MRSA ([7]; strain # 114): >8; MIC against Staphylococcus aureus including MRSA ([7]; strain # 115): >8; MIC against Staphylococcus aureus including MRSA ([7]; strain # 116): >8; MIC against Staphylococcus aureus including MRSA ([7]; strain # 117): >8; MIC against Staphylococcus aureus including MRSA ([7]; strain # 118): >8; MIC against Staphylococcus aureus including MRSA ([7]; strain # 119): >8; MIC against Staphylococcus aureus including MRSA ([7]; strain # 120): >8; MIC against Staphylococcus aureus including MRSA ([7]; strain # 121): >8; MIC against Staphylococcus aureus including MRSA ([7]; strain # 122): >8; MIC against Staphylococcus aureus including MRSA ([7]; strain # 123): >8; MIC against Staphylococcus aureus including MRSA ([7]; strain # 124): >8; MIC against Staphylococcus aureus including MRSA ([7]; strain # 125): >8; MIC against Staphylococcus aureus including MRSA ([7]; strain # 126): >8; MIC against Staphylococcus aureus including MRSA ([7]; strain # 127): >8; Known range (MIC) [8]: 0.25 to 1 µg/mL; MIC ([9]; isolate # 1 (mastitis)): 2 µg/mL (≈ 2.73 µM); MIC ([9]; isolate # 2 (mastitis)): > 8 µg/mL; MIC ([9]; isolate # 3 (mastitis)): > 8 µg/mL; MIC ([9]; isolate # 4 (mastitis)): > 8 µg/mL; MIC ([9]; isolate # 5 (mastitis)): > 8 µg/mL; MIC ([9]; isolate # 6 (mastitis)): > 8 µg/mL; MIC ([9]; isolate # 7 (mastitis)): > 8 µg/mL; MIC ([9]; isolate # 8 (mastitis)): > 8 µg/mL; MIC ([9]; isolate # 9 (mastitis)): > 8 µg/mL; MIC ([9]; isolate # 10 (mastitis)): > 8 µg/mL; MIC ([9]; isolate # 11 (canine wound)): > 8 µg/mL; MIC ([9]; isolate # 12 (canine wound)): > 8 µg/mL; MIC ([9]; isolate # 13 (canine wound)): > 8 µg/mL; MIC ([9]; isolate # 14 (canine wound)): > 8 µg/mL; MIC ([9]; isolate # 15 (canine wound)): > 8 µg/mL; MIC ([9]; isolate # 16 (canine wound)): > 8 µg/mL; MIC ([9]; isolate # 17 (canine wound)): > 8 µg/mL; MIC ([9]; isolate # 18 (canine wound)): > 8 µg/mL; MIC ([9]; isolate # 19 (canine wound)): > 8 µg/mL; MIC ([9]; isolate # 20 (canine wound)): > 8 µg/mL; MIC ([10]; isolate # 88): 0.3 µg/mL (≈ 0.409 µM); MIC ([10]; isolate # 89): 0.5 µg/mL (≈ 0.681 µM); MIC ([10]; isolate # 90): 0.5 µg/mL (≈ 0.681 µM); MIC ([10]; isolate # 91): 1 µg/mL (≈ 1.36 µM); MIC ([10]; isolate # 92): 0.5 µg/mL (≈ 0.681 µM); MIC ([10]; isolate # 93): 0.3 µg/mL (≈ 0.409 µM); MIC ([10]; isolate # 94): 0.5 µg/mL (≈ 0.681 µM); MIC ([10]; isolate # 95): 0.5 µg/mL (≈ 0.681 µM); MIC ([10]; isolate # 96): 0.5 µg/mL (≈ 0.681 µM); MIC ([10]; isolate # 97): 0.5 µg/mL (≈ 0.681 µM); MIC ([11]; isolate # 218): 0.06 µg/mL (≈ 0.0818 µM); MIC ([11]; isolate # 219): 0.5 µg/mL (≈ 0.681 µM); MIC ([11]; isolate # 220): 0.06 µg/mL (≈ 0.0818 µM); MIC ([11]; isolate # 221): 1 µg/mL (≈ 1.36 µM); MIC ([11]; isolate # 222): 0.06 µg/mL (≈ 0.0818 µM); MIC ([11]; isolate # 223): 0.06 µg/mL (≈ 0.0818 µM); MIC ([11]; isolate # 224): 0.06 µg/mL (≈ 0.0818 µM); MIC ([11]; isolate # 225): 2 µg/mL (≈ 2.73 µM); MIC ([11]; isolate # 226): 0.06 µg/mL (≈ 0.0818 µM); MIC ([11]; isolate # 227): 2 µg/mL (≈ 2.73 µM)
